Among the data in patent US7045532B2 (Millennium Pharmaceuticals, Inc., priority 1999, dated 2006) are Ki values, retold here.

One assay addresses T1, Carboxypeptidase A (Bos taurus, UniProt P00730).
T1 sequence (P00730 111-419): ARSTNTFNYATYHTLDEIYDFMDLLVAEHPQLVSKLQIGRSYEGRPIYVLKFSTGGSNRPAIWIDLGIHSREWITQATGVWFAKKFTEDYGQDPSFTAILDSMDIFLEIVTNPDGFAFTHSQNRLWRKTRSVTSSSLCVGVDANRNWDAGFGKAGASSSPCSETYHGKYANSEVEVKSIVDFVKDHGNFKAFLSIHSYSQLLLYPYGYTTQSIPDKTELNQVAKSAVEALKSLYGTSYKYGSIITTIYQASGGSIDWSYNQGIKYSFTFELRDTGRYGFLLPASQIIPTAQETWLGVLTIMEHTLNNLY
Briefly: Carboxypeptidase A activity assay. In kind it is biochemical. Particulars: Ki class; compounds tested in 5% DMSO, 12 concentrations. As to the method: Carboxypeptidase A activity was measured using a literature assay (Holmquist and Riordan, “Carboxypeptidase A,” Methods of Enzymatic Analysis (1984) p. 44–60). The assay was adapted to a 96 well format by adjusting to a 300 μL assay volume and using ultra-thin bottom plates (Costar/Corning) read at 328 nm. The assay was stopped using EDTA.
The activity of the test compounds was investigated using the procedure outlined above. The compounds were tested in 5% DMSO. Enzyme activity was measured at 12 compound concentrations. The Ki was calculated by using Ki=Kiapp/(1+[S]/Km).
To determine whether a test compound is capable of modulating carboxypeptidase A's ability to cleave a substrate the method described in Holmquist and Riordan, Carboxypeptidase A, p44–60, Peptidase and Their Inhibitors in Method of Enzymatic Analysis (1984), may be used.
The assay may be adapted to a 96 well format by adjusting to a 300 μl assay volume and using ultrathin bottom plates (Costar/Coming) read at 328 nm with a final assay volume of 300 μl. The assay may be stopped using EDTA.

Another assay has as its target T2, ACE (Sigma, A2580) (Sus scrofa, UniProt F1RRW5).
T2 construct: ACE from porcine kidney; purchased Sigma A2580; host or cells: porcine kidney
T2 sequence (F1RRW5 34-1309): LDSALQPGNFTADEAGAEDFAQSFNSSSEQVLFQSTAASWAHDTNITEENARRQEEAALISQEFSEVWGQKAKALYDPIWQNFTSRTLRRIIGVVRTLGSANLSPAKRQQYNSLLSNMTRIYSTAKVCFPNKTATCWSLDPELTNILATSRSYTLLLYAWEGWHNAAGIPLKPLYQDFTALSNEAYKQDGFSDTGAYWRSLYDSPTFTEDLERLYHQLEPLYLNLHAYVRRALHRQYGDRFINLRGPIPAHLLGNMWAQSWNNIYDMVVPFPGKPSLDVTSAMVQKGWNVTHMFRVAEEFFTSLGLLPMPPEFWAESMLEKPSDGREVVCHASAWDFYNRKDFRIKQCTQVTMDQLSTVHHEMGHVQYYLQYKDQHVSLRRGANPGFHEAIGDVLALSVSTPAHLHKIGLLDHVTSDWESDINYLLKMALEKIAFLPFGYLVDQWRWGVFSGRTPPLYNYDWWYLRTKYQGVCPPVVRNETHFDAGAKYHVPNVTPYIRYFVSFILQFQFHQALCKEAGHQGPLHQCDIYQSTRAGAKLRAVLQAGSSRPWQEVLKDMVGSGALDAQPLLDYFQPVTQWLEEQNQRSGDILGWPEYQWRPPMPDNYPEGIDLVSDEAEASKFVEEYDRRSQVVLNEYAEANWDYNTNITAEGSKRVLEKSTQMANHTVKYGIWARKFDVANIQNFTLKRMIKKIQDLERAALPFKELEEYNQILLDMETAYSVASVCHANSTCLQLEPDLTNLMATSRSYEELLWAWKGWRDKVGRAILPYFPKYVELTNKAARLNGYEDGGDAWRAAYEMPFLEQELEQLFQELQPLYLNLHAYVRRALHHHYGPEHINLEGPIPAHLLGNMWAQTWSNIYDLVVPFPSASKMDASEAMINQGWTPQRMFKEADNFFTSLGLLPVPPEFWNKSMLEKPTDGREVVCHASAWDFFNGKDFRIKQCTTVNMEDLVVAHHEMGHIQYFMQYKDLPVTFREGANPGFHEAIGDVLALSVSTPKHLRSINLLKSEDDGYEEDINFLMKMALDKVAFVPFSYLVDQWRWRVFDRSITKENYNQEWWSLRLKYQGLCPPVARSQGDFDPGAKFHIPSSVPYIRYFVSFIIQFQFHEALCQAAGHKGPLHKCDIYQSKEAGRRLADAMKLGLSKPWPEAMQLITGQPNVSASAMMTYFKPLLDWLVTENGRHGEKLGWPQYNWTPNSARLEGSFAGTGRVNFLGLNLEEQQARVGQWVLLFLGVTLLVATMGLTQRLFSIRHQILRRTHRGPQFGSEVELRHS
Briefly: ACE enzymatic activity assay. The assay is classed as biochemical, porcine. Particulars: Ki class; compounds tested in 5% DMSO, 12 concentrations. As to the method:
ACE (Sigma, A2580) enzymatic activity was assayed in microtiter plates using the following protocol. ACE assay buffer was made from 50 mM HEPES (Sigma), 300 mM sodium chloride (Sigma), and 0.01% Brij-35 (Pierce Chemical Co) at pH 7.5.
Reactions were mixed and incubated at 25° C. Enzymatic cleavage of the substrate is marked by a fluorescence change (excitation 330 nm, emission 415 nm).
The activity of the test compounds was investigated using the procedure outlined above. The compounds were tested in 5% DMSO. Enzyme activity was measured at 12 compound concentrations. […]. […]

The target of another assay is T3, ACE-2 (Homo sapiens, UniProt Q9BYF1).
T3 construct: a stop codon inserted after the serine immediately preceding the transmembrane domain; made in house; host or cells: CHO K1 cells (transient transfection, purified from conditioned medium)
T3 sequence (Q9BYF1 18-740 limits assumed): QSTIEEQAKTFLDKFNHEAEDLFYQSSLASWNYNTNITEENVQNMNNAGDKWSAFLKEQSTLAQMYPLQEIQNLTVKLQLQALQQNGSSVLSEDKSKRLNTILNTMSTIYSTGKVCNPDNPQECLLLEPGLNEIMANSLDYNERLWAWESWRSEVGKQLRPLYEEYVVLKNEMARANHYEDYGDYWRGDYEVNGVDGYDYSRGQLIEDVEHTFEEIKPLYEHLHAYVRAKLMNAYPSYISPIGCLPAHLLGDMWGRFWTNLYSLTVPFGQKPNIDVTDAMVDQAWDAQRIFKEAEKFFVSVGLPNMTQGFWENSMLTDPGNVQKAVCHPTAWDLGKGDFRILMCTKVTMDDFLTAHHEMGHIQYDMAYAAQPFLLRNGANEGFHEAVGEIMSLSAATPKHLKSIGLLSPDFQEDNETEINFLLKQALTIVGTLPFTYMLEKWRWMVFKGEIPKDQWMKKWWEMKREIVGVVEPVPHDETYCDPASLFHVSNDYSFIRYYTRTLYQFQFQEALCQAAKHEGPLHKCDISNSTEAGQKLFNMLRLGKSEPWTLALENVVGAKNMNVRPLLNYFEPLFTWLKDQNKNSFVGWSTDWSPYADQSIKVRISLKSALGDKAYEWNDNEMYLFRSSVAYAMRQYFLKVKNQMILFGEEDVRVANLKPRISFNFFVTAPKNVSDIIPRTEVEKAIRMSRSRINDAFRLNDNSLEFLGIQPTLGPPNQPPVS
Briefly: ACE-2 Competitive Substrate Assay (ACS Assay). The assay is classed as biochemical. As to conditions: Ki class; compounds tested in 5% DMSO, 12 concentrations; read-out: Human ACE-2 Activity.

In the case of `CC(C)CC(N[C@H](CC(=O)O)Cc1ccsc1)C(=O)O` (stereo in doubt) [EJ, 2-(1-Carboxymethyl-2-thiophen-3-yl-ethylamino)-4-methyl-pentanoic acid], the Ki was > 50 µM on Carboxypeptidase A; > 50 µM on ACE (Sigma, A2580); > 0.5 µM at ACE-2.
Regarding `CCCC(N[C@@H](Cc1ccccc1)C(=O)O)C(=O)O` (stereo partly drawn) [AA, 2-(1-Carboxy-2-phenyl-ethylamino)-pentanoicacid], the Ki at Carboxypeptidase A is > 50 µM; on ACE (Sigma, A2580), > 50 µM; on ACE-2, > 0.5 µM.
Regarding `O=C(O)C(CO)N[C@@H](CCc1ccccc1)C(=O)O` (stereo partly drawn) [AB, 2-(1-Carboxy-2-hydroxy-ethylamino)-4-phenyl-butync acid], the Ki at Carboxypeptidase A is > 50 µM; at ACE (Sigma, A2580), > 50 µM; at ACE-2 it was > 0.5 µM.
As to `CC(N[C@@H](Cc1c[nH]c2ccccc12)C(=O)O)C(=O)O` (stereo partly drawn) [AG, 2-(1-Carboxy-ethylamino)-3-(1H-indol-3-yl)-propionic acid], the Ki at Carboxypeptidase A is > 50 µM; on ACE (Sigma, A2580), > 50 µM; on ACE-2, > 0.5 µM.
On to `CC(NC(Cc1cccs1)C(=O)O)C(=O)O` (stereo not drawn) [AH, 2-(1-Carboxy-ethylamino)-3-thiophen-2-yl-propionic acid], for which the Ki at Carboxypeptidase A is > 50 µM; at ACE (Sigma, A2580) it was > 50 µM; at ACE-2 it was > 0.5 µM.
Consider `CCCC(NC(Cc1cccs1)C(=O)O)C(=O)O` (stereo not drawn) [AI, 2-(1-Carboxy-2-thiophen-2-yl-ethylamino)-pentanoic acid], for which the Ki was > 50 µM at Carboxypeptidase A; > 50 µM at ACE (Sigma, A2580); > 0.5 µM at ACE-2.
In the case of `O=C(O)C(CCc1ccccc1)N[C@@H](Cc1ccccc1)C(=O)O` (stereo partly drawn) [AJ, 2-(1-Carboxy-2-phenyl-ethylamino)-4-phenyl-butync acid], the Ki at Carboxypeptidase A was 10 to 50 µM; on ACE (Sigma, A2580), > 50 µM; at ACE-2, > 0.5 µM.
Regarding `CCC(NC(Cc1cccs1)C(=O)O)C(=O)O` (stereo not drawn) [AK, 2-(1-Carboxy-2-thiophen-2-yl-ethylamino)-butync acid], the Ki on Carboxypeptidase A was > 50 µM; at ACE (Sigma, A2580), > 50 µM; on ACE-2, > 0.5 µM.
Consider `CC(C)CC(NC(Cc1cccs1)C(=O)O)C(=O)O` (stereo not drawn) [AL, 2-(1-Carobxy-2-thiophen-2-yl-ethylamino)-4-methyl-pentanoic acid], for which the Ki was > 50 µM at Carboxypeptidase A; > 50 µM at ACE (Sigma, A2580); > 0.5 µM at ACE-2.
On to `CSCC[C@H](NC(C)C(=O)O)C(=O)O` (stereo partly drawn) [AM, 2-(1-Carboxy-ethylamino)-4-methylsulfanyl-butync acid], for which the Ki on Carboxypeptidase A is > 50 µM; at ACE (Sigma, A2580), > 50 µM; at ACE-2, > 0.5 µM.
For the compound `CSCC[C@H](NC(CC(C)C)C(=O)O)C(=O)O` (stereo partly drawn) [AN, 2-(1-Carboxy-3-methylsulfanyl-propylamino)-4-methyl-pentanoic acid], the Ki was 10 to 50 µM at Carboxypeptidase A; > 50 µM at ACE (Sigma, A2580); > 0.5 µM on ACE-2.
Regarding `CC(N[C@H](CCc1ccccc1)C(=O)O)C(=O)O` (stereo partly drawn) [AW, 2-(1-Carboxy-ethylamino)-4-phenyl-butync acid], the Ki at Carboxypeptidase A is > 50 µM; on ACE (Sigma, A2580) it was > 50 µM; at ACE-2, > 0.5 µM.
On to `O=C(O)C(CCc1ccccc1)N[C@@H](CC1CCCCC1)C(=O)O` (stereo partly drawn) [BG, 2-(1-Carboxy-2-cyclohexyethylamino)-4-phenyl-butync acid], for which the Ki at Carboxypeptidase A is > 50 µM; at ACE (Sigma, A2580) it was > 50 µM; at ACE-2, > 0.5 µM.
As for `CC(C)C[C@@H](NC(CCc1ccccc1)C(=O)O)C(=O)O` (stereo partly drawn) [BH, 2-(1-Carboxy-3-phenyl-propylamino)-4-methyl-pentanoic acid], the Ki on Carboxypeptidase A was > 50 µM; on ACE (Sigma, A2580), > 50 µM; at ACE-2 it was > 0.5 µM.
Regarding `C#CCC(N[C@@H](C(=O)O)c1ccccc1)C(=O)O` (stereo partly drawn) [BN, 2-[(Carboxy-phenyl-methyl)-amino]-pent-4-ylnoic acid], the Ki was > 50 µM at Carboxypeptidase A; > 50 µM at ACE (Sigma, A2580); > 0.5 µM on ACE-2.
Turning to `O=C(O)C(Cc1ccccc1)NC(C(=O)O)c1ccccc1` (stereo not drawn) [BO, 2-[(Carboxy-phenyl-methyl)-amino]-3-phenyl-propionic acid], the Ki was 10 to 50 µM at Carboxypeptidase A; > 50 µM at ACE (Sigma, A2580); > 0.5 µM on ACE-2.
For `O=C(O)[C@H](CC1CCCCC1)N[C@@H](C(=O)O)c1ccccc1` [BP, 2-[(Carboxy-phenyl-methyl)-amino]-3-cyclohexyl-propionic acid] the same measures were > 50 µM, > 50 µM and > 0.5 µM.
For `CCCC[C@H](N[C@@H](C(=O)O)c1ccccc1)C(=O)O` [BX, 2-[(Carboxy-phenyl-methyl)-amino]-hexanoicacid] the same measures were > 50 µM, > 50 µM and > 0.5 µM.
For `O=C(O)[C@H](NC1(C(=O)O)CCCCC1)c1ccccc1` [BY, 1-[(Carboxy-phenyl-methyl)-amino]-cyclohexanecarboxylic acid] the same measures were > 50 µM, > 50 µM and > 0.5 µM.
Take `CC(C)CC(NCC(C)C(=O)O)C(=O)O` (stereo not drawn) [CG, 2-(2-Carboxy-propylamino)-4-methyl-pentanoic acid]: the Ki was > 50 µM on Carboxypeptidase A; > 50 µM at ACE (Sigma, A2580); > 0.5 µM at ACE-2.
`CCCCCCC(N[C@H](CCc1ccccc1)C(=O)O)C(=O)O` (stereo partly drawn) [CH, 2-(1-Carboxy-3-phenyl-propylamino)-octanoicacid]: the Ki was > 50 µM on Carboxypeptidase A; > 50 µM at ACE (Sigma, A2580); > 0.5 µM at ACE-2.
Turning to `CC(C)CC(N[C@H](CCc1ccccc1)CC(=O)O)C(=O)O` (stereo partly drawn) [CI, 2-(1-Carboxymethyl-3-phenyl-propylamino)-4-methyl-pentanoic acid], the Ki is > 50 µM on Carboxypeptidase A; > 50 µM at ACE (Sigma, A2580); > 0.5 µM at ACE-2.
With `CC(C)CC(N[C@H](CCc1ccccc1)C(=O)O)C(=O)O` (stereo partly drawn) [CM, 2-(1-Carboxy-3-phenyl-propylamino)-4-methyl-pentanoic acid], the Ki at Carboxypeptidase A was > 50 µM; at ACE (Sigma, A2580), > 50 µM; at ACE-2, > 0.5 µM.
With `CC(C)C[C@H](NCc1ccc(C(=O)O)cc1)C(=O)O` [CN, 4-[(1-Carboxy-3-methyl-butylamino)-methyl]-benzoic acid], the Ki on Carboxypeptidase A is > 50 µM; on ACE (Sigma, A2580) it was > 50 µM; at ACE-2, > 0.5 µM.
